In patent US10040759B2, “Substituted azetidinyl compounds as GlyT1 inhibitors” (DART NEUROSCIENCE (CAYMAN) LTD., priority 2014, dated 2018):

The compounds below were run against T1, GlyT1 (Homo sapiens, UniProt P48067) (assay: Glycine Transporter 1 (GlyT1) uptake assay, scintillation proximity assay of [14C]-glycine uptake). Settings: [14C]-glycine uptake; read-out: GlyT1 (pIC50) (converted).
T1 construct: expressed in transfected cells
T1 sequence (P48067 1-706): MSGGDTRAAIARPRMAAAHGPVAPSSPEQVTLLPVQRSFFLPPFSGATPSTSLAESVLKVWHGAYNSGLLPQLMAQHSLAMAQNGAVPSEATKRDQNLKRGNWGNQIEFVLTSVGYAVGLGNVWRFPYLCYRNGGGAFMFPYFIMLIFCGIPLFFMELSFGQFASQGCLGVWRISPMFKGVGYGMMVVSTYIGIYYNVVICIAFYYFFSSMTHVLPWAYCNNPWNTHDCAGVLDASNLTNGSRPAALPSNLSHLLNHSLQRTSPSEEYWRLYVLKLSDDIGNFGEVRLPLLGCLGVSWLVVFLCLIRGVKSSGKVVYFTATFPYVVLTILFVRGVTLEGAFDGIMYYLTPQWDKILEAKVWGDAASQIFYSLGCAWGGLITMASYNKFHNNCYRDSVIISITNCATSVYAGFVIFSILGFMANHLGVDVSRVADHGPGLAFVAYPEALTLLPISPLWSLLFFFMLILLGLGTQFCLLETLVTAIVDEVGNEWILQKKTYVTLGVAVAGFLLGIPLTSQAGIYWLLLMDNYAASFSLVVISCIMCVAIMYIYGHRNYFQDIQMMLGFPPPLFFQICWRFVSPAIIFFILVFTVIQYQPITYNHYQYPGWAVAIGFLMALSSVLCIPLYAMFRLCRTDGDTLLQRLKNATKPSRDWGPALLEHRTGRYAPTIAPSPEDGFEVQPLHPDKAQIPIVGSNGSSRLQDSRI
Assay type: cell-based
Procedure, shortened: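 IC50 values were derived by four-parameter logistic fitting of counts. The 2× compound solutions were made by 1:100 dilution into HBSS of DMSO serial dilutions.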

SMILES	IC50
COc1c(S(C)(=O)=O)ccc(O[C@@H](C)C(F)(F)F)c1C(=O)N1CC(c2ncccc2Cl)C1 [Example 234, 3-Chloro-2-[1-(3-methanesulfonyl-2-methoxy-6-{[(2S)-1,1,1-trifluoropropan-2-yl]oxy}benzoyl)azetidin-3-yl]pyridine]	< 0.1 µM
COc1c(S(C)(=O)=O)ccc(O[C@@H](C)C(F)(F)F)c1C(=O)N1CC(Oc2ccc(C(F)(F)F)cn2)C1 [Example 61, 2-{[1-(3-Methanesulfonyl-2-methoxy-6-{[(2S)-1,1,1-trifluoropropan-2-yl]oxy}benzoyl)azetidin-3-yl]oxy}-5-(trifluoromethyl)pyridine]	0.1 to 1 µM
COc1c(S(C)(=O)=O)ccc(OCC(F)(F)F)c1C(=O)N1CC(c2ccc(C#N)cc2Cl)C1 [Example 237, 3-Chloro-4-{1-[3-methanesulfonyl-2-methoxy-6-(2,2,2-trifluoroethoxy)benzoyl]azetidin-3-yl}benzonitrile]	< 0.1 µM
N#Cc1ccc(OCC(F)(F)F)c(C(=O)N2CC(c3ccc(C(F)(F)F)cc3)C2)c1Cl [Example 105, 2-Chloro-4-(2,2,2-trifluoroethoxy)-3-({3-[4-(trifluoromethyl)phenyl]azetidin-1-yl}carbonyl)benzonitrile]	0.1 to 1 µM
COc1c(C#N)ccc(C2(F)CCC2)c1C(=O)N1CC(c2ccc(C#N)cc2Cl)C1 [Example 134, 3-{[3-(2-Chloro-4-cyanophenyl)azetidin-1-yl]carbonyl}-4-(1-fluorocyclobutyl)-2-methoxybenzonitrile]	< 0.1 µM
COc1c(C#N)ccc(O[C@@H](C)C(F)(F)F)c1C(=O)N1CC(c2ccc(C#N)c(F)c2Cl)C1 [Example 124, 3-Chloro-4-{1-[(3-cyano-2-methoxy-6-{[(2S)-1,1,1-trifluoropropan-2-yl]oxy}phenyl)carbonyl]azetidin-3-yl}-2-fluorobenzonitrile]	< 0.1 µM
COc1c(C#N)ccc(OC(C)C(F)(F)F)c1C(=O)N1CC(c2cc(F)cc(F)c2)C1 (centres unmarked) [Example 100, 3-{[3-(3,5-Difluorophenyl)azetidin-1-yl]carbonyl}-2-methoxy-4-[(1,1,1-trifluoropropan-2-yl)oxy]benzonitrile]	0.1 to 1 µM
COc1c(C#N)ccc(C2(F)CCOCC2)c1C(=O)N1CC(c2cc(F)cc(F)c2)C1 [Example 19, 3-{[3-(3,5-Difluorophenyl)azetidin-1-yl]carbonyl}-4-(4-fluorooxan-4-yl)-2-methoxybenzonitrile]	< 0.1 µM
COc1c(C#N)ccc(OC(C)C(F)(F)F)c1C(=O)N1CC(Oc2ccc(C)cc2)C1 (centres unmarked) [Example 78, 2-Methoxy-3-{[3-(4-methylphenoxy)azetidin-1-yl]carbonyl}-4-[(1,1,1-trifluoropropan-2-yl)oxy]benzonitrile]	1 to 10 µM
COc1c(C#N)ccc(C2(F)CCOCC2)c1C(=O)N1CC(Oc2ccc(C(F)(F)F)cc2)C1 [Example 24, 4-(4-Fluorooxan-4-yl)-2-methoxy-3-({3-[4-(trifluoromethyl)phenoxy]azetidin-1-yl}carbonyl)benzonitrile]	0.1 to 1 µM
COc1c(S(C)(=O)=O)ccc(OCC(F)(F)F)c1C(=O)N1CC(Oc2ccc(F)cc2F)C1 [Example 227, 3-(2,4-Difluorophenoxy)-1-[3-methanesulfonyl-2-methoxy-6-(2,2,2-trifluoroethoxy)benzoyl]azetidine]	0.1 to 1 µM
COc1c(C#N)ccc(O[C@@H](C)C(F)(F)F)c1C(=O)N1CC(c2ncc(C(F)(F)F)cc2C)C1 [Example 11, 2-Methoxy-3-({3-[3-methyl-5-(trifluoromethyl)pyridin-2-yl]azetidin-1-yl}carbonyl)-4-{[(2S)-1,1,1-trifluoropropan-2-yl]oxy}benzonitrile]	0.1 to 1 µM
C[C@H](Oc1ccc(C#N)c(Cl)c1C(=O)N1CC(c2ccc(C(F)(F)F)cn2)C1)C(F)(F)F [Example 120, 2-Chloro-3-({3-[5-(trifluoromethyl)pyridin-2-yl]azetidin-1-yl}carbonyl)-4-{[(2S)-1,1,1-trifluoropropan-2-yl]oxy}benzonitrile]	< 0.1 µM
COc1c(C#N)ccc(O[C@@H](C)C(F)(F)F)c1C(=O)N1CC(c2ccc(C(F)(F)F)nc2)C1 [Example 31, 2-Methoxy-3-({3-[6-(trifluoromethyl)pyridin-3-yl]azetidin-1-yl}carbonyl)-4-{[(2S)-1,1,1-trifluoropropan-2-yl]oxy}benzonitrile]	0.1 to 1 µM
COc1cc(C2CN(C(=O)c3c(O[C@H](C)C(F)(F)F)ccc(C#N)c3OC)C2)ccc1C#N [Example 177, 3-[3-(4-Cyano-3-methoxyphenyl)azetidine-1-carbonyl]-2-methoxy-4-{[(2R)-1,1,1-trifluoropropan-2-yl]oxy}benzonitrile]	0.1 to 1 µM
C[C@H](Oc1ccc(C#N)c(Cl)c1C(=O)N1CC(c2cc(F)cc(F)c2)C1)C(F)(F)F [Example 57, 2-Chloro-3-[3-(3,5-difluorophenyl)azetidine-1-carbonyl]-4-{[(2S)-1,1,1-trifluoropropan-2-yl]oxy}benzonitrile]	0.1 to 1 µM
COc1c(S(C)(=O)=O)ccc(OC(C)C)c1C(=O)N1CC(Oc2ccc(F)cc2F)C1 [Example 220, 3-(2,4-Difluorophenoxy)-1-[3-methanesulfonyl-2-methoxy-6-(propan-2-yloxy)benzoyl]azetidine]	0.1 to 1 µM
COc1c(C#N)ccc(C2(F)CCOCC2)c1C(=O)N1CC(Oc2ccc(F)c(F)c2)C1 [Example 25, 3-{[3-(3,4-Difluorophenoxy)azetidin-1-yl]carbonyl}-4-(4-fluorooxan-4-yl)-2-methoxybenzonitrile]	0.1 to 1 µM
COc1c(C#N)ccc(O[C@@H](C)C(F)(F)F)c1C(=O)N1CC(c2ccc(C(F)(F)F)cc2)C1 [Example 178, 2-Methoxy-3-({3-[4-(trifluoromethyl)phenyl]azetidin-1-yl}carbonyl)-4-{[(2S)-1,1,1-trifluoropropan-2-yl]oxy}benzonitrile]	0.1 to 1 µM
COc1c(S(C)(=O)=O)ccc(O[C@H](C)C(F)(F)F)c1C(=O)N1CC(c2ccc(C(F)F)cn2)C1 [Example 185, 5-(Difluoromethyl)-2-[1-(3-methanesulfonyl-2-methoxy-6-{[(2R)-1,1,1-trifluoropropan-2-yl]oxy}benzoyl)azetidin-3-yl]pyridine]	0.1 to 1 µM
COc1c(C#N)ccc(OC(C)C(F)(F)F)c1C(=O)N1CC(c2ccc(Cl)cc2)C1 (centres unmarked) [Example 97, 3-{[3-(4-Chlorophenyl)azetidin-1-yl]carbonyl}-2-methoxy-4-[(1,1,1-trifluoropropan-2-yl)oxy]benzonitrile]	0.1 to 1 µM
COc1c(S(C)(=O)=O)ccc(O[C@@H](C)C(F)(F)F)c1C(=O)N1CC(Oc2ccc(F)cc2C)C1 [Example 58, 3-(4-Fluoro-2-methylphenoxy)-1-(3-methanesulfonyl-2-methoxy-6-{[(2S)-1,1,1-trifluoropropan-2-yl]oxy}benzoyl)azetidine]	< 0.1 µM
COc1c(C#N)ccc(C2(F)CCOCC2)c1C(=O)N1CC(c2ccc(F)c(F)c2)C1 [Example 21, 3-{[3-(3,4-Difluorophenyl)azetidin-1-yl]carbonyl}-4-(4-fluorooxan-4-yl)-2-methoxybenzonitrile]	1 to 10 µM
N#Cc1ccc(C2CN(C(=O)c3c(OCC(F)(F)F)ccc(C#N)c3Cl)C2)cc1 [Example 106, 2-Chloro-3-{[3-(4-cyanophenyl)azetidin-1-yl]carbonyl}-4-(2,2,2-trifluoroethoxy)benzonitrile]	< 0.1 µM
COc1c(S(C)(=O)=O)ccc(OC(C)C(F)(F)F)c1C(=O)N1CC(Oc2ccc(F)c(F)c2)C1 (centres unmarked) [Example 180, 3-(3,4-Difluorophenoxy)-1-({3-methanesulfonyl-2-methoxy-6-[(1,1,1-trifluoropropan-2-yl)oxy]phenyl}carbonyl)azetidine]	< 0.1 µM
COc1c(S(C)(=O)=O)ccc(O[C@@H](C)C(F)(F)F)c1C(=O)N1CC(c2cccc(C(F)(F)F)c2)C1 [Example 10, 1-(3-Methanesulfonyl-2-methoxy-6-{[(2S)-1,1,1-trifluoropropan-2-yl]oxy}benzoyl)-3-[3-(trifluoromethyl)phenyl]azetidine]	< 0.1 µM
COc1c(C#N)ccc(O[C@@H](C)C(F)(F)F)c1C(=O)N1CC(c2ccc(C#N)cc2Cl)C1 [Example 118, 3-{[3-(2-Chloro-4-cyanophenyl)azetidin-1-yl]carbonyl}-2-methoxy-4-{[(2S)-1,1,1-trifluoropropan-2-yl]oxy}benzonitrile]	< 0.1 µM
COc1c(C#N)ccc(O[C@@H](C)C(F)(F)F)c1C(=O)N1CC(c2ncc(F)cc2F)C1 [Example 121, 3-{[3-(3,5-Difluoropyridin-2-yl)azetidin-1-yl]carbonyl}-2-methoxy-4-{[(2S)-1,1,1-trifluoropropan-2-yl]oxy}benzonitrile]	< 0.1 µM
CC(Oc1ccc(C#N)c(Cl)c1C(=O)N1CC(Oc2ccc(F)cc2)C1)C(F)(F)F (centres unmarked) [Example 73, 2-Chloro-3-{[3-(4-fluorophenoxy)azetidin-1-yl]carbonyl}-4-[(1,1,1-trifluoropropan-2-yl)oxy]benzonitrile]	< 0.1 µM
